Data reported in US20110262561A1, “Protoilludance Norsesquiterpenoid Esters and Uses Thereof” (NATIONAL RESEARCH INSTITUTE OF CHINESE MEDICINE, priority 2010, published 2011).
pIC50: −log10 of the molar value. Like-named read-outs stand apart in the source and are kept apart here.

Assays:
[1] = system: MCF-7; experiment: Alamar blue cytotoxicity assay on MCF-7 cancer cells; format: cell-based; conditions: for pIC50: Homo sapiens, MCF7, alamar blue, 48 hours treatment
Method: (§1) The endothelial cells (human endothelial-like cells, Eahy926) and 4 cancer cell lines (MCF-7, H460, HT-29, and CEM) were derived from the American Type Culture Collection (ATCC) and were maintained in DMEM or RPMI medium (Life Technologies) supplemented with 2 mM L-glutamine and 10% heat-inactivated fetal bovine serum (FBS) (Life Technologies) under standard culture conditions. The cell viability and cell number were determined by the Trypan Blue dye-exclusion method.
(§2) The alamar blue (AB) assay (dye purchased from Biosource International, Nivelles, Belgium) was used to estimate cell viability in accordance with procedures previously described by Fatokun et al (Bone (2006) 39, 542-551). Briefly, cells were treated with various concentration of each of the test compounds (e.g., compounds of example 1.1) at 37° C. for 48 hours, and the medium in each well was then aspirated at the end of the treatment, 100 μL of fresh medium containing 10% v/v AB was then added to the control and the treated wells, respectively. Plates were then incubated at 37° C. for 6 hour prior to measuring the absorbance at 570 nm and at 600 nm wavelengths using a spectrophotometric plate reader (DYNEX Technologies, USA). Experimental data were normalized to control values. CH-205-A, K, L, O, and -P were effective on MCF-7 cells; CH-205-A, H, K, L, O, and -P were effective on H460 cells; CH-205-A and -P were effective on HT-29 cells and CH-205-A, H, N, and -O were effective on CEM cells.

[2] = system: H460; experiment: Alamar blue cytotoxicity assay on H460 cancer cells; format: cell-based, human; conditions: for pIC50: Homo sapiens, NCI-H460, alamar blue, 48 hours treatment
Method: as §1, §2

[3] = system: HT-29; experiment: Alamar blue cytotoxicity assay on HT-29 cancer cells; format: cell-based; conditions: for pIC50: Homo sapiens, HT-29, alamar blue, 48 hours treatment
Method: as §1, §2

[4] = system: CEM; experiment: Alamar blue cytotoxicity assay on CEM cancer cells; format: cell-based; conditions: for pIC50: Homo sapiens, CCRF-CEM, alamar blue, 48 hours treatment
Method: as §1, §2

[5] = MTT cell viability of endothelial cells (ECs); format: cell-based, human; conditions: human, column head prints none, read-out: Cell viability IC50 (cytotoxicity concentration on ECs)
Method: as §1
(§3) Anti-angiogenic effects of CH-205 compounds were estimated by their inhibition on the growth of endothelial cells. The toxicity of CH-205 compounds to endothelial cells was estimated using MTT (3-(4,5-dimethy;thiazol-2-yl)-2,5-diphenyltetrazolium bromide, a tetrazole) assay. MTT assay is a standard colorimetric assay (an assay which measures changes in color) for measuring the activity of enzymes that reduce yellow MTT to formazan, giving a purple color. It is also used to determine cytotoxity of potential medicinal agents and other toxic materials, since those agents would result in cell toxicity and therefore metabolic dysfunction and therefore decreased performance in the assay. The cytotoxity concentrations of the CH-205 compounds measured in MTT test are all over 20 μM (Table 2), however, their effects on angiogenesis inhibition are in nM range, indicating the safety of these compounds (Table 3).

[6] = system: endothelial cells (human endothelial-like cells, Eahy926); experiment: MTT cell viability of endothelial cells (ECs); format: cell-based
Method: as §1, §3

[7] = system: endothelial cells (ECs); experiment: In vitro antiangiogenesis on ECs (inhibition of endothelial cell growth); format: cell-based; conditions: Homo sapiens, read-out: In vitro antiangiogenesis IC50
Method: as §1, §3

[8] = system: H460 human lung cancer tumor xenograft; conditions: for tumor volume after sacrifice: control 1.743±0.129
Method: The established, transplantable, 5×10^6/200 μL H460 tumor cells were prepared in RPMI medium. The 200 μL of cell suspension was injected subcutaneously into right flank area of each mouse. The mice were randomized into vehicle control and drug treatment groups of four-six animals each when xenografts were palpable with a tumor size of 40 mm^3. Adminitration of the lead compounds or vehicle began on day 15 when the median tumor size was ranged from 75 to 80 mm^3. Tumor-bearing animals were randomized (five per group) prior to treatment. The candidate test drugs were intraperitoneal (IP) administered into with optimal dosage once every other day (48 hr apart) for 7 or 10 times. […] Solvent vehicle and cisplatin (5 mg/kg) were used to administrate, respectively, as io negative and positive controls. Two days after last administration of tested compounds, the animals were sacrificed. The tumor dimensions were measured every other day using a linear caliper and tumor volume is calculated using the equation V (mm^3)=a×b^2/2, where a is the largest diameter and b is the smallest diameter. Body weights are also recorded once weekly. Tumor is growth inhibition ratio (TGI) is calculated using the equation TGI=(1−(the mean treated tumor mass/mean control tumor mass))*100%.

Structure (SMILES): COc1cc(O)c(C(=O)O[C@@H]2C[C@@]3(C)C2=C(C=O)C=C2CC(C)(C)C[C@@H]23)c(C)c1Cl [CH-205-A]
- effective on MCF-7 cells [1]: effective
- pIC50 [1]: 5.32
- effective on H460 cells [2]: effective
- pIC50 [2]: 5.26
- effective on HT-29 cells [3]: effective
- pIC50 [3]: 5.34
- effective on CEM cells [4]: effective
- pIC50 [4]: 5.24
- pIC50 ([5]; Eahy926 endothelial-like cells): 4.62
- Cell viability (% of control) 1 μM [6]: 101.4 % of control
- Cell viability (% of control) 10 μM [6]: 87.9 % of control
- Cell viability (% of control) 50 μM [6]: 17.7 % of control
- Cell viability (% of control) 100 μM [6]: 8.4 % of control
- Cell viability (% of control) 250 μM [6]: 7.1 % of control
- Cell viability (% of control) 500 μM [6]: 7.9 % of control
- pIC50 [7]: 7.39

Structure (SMILES): COc1cc(O)c(C(=O)O[C@@H]2C[C@]3(C)C4[C@@H](O)C(C)(C)C[C@@]4(O)C=C(C=O)[C@]23O)c(C)c1Cl (stereo partly drawn) [CH-205-E, (2R,2a6,4aR,7R,7bR)-3-formyl-2,2a,4a,5,6,7,7a,7b-octahydro-2a,4a,7-trihydroxy-6,6,7b-trimethyl-1H-cyclobuta[e]inden-2-yl 3-chloro-6-hyd roxy-4-methoxy-2-methylbenzoate]
- pIC50 [1]: < 4.00
- pIC50 [2]: < 4.00
- pIC50 [3]: 4.07
- pIC50 [4]: 4.30
- pIC50 ([5]; Eahy926 endothelial-like cells): 3.66
- Cell viability (% of control) 1 μM [6]: 93.5 % of control
- Cell viability (% of control) 10 μM [6]: 98.6 % of control
- Cell viability (% of control) 50 μM [6]: 80.8 % of control
- Cell viability (% of control) 100 μM [6]: 63.7 % of control
- Cell viability (% of control) 250 μM [6]: 32.1 % of control
- Cell viability (% of control) 500 μM [6]: 7.4 % of control
- pIC50 ([7]; ECs): 7.64

Structure (SMILES): Cc1c(Cl)c(O)cc(O)c1C(=O)O[C@@H]1C[C@]2(C)C3CC(C)(C)CC3C=C(CO)[C@]12O (stereo partly drawn) [CH-205-K, (2R,2aS,7bR)-2,2a,4a,5,6,7,7a,7b-octahydro-2a-hydroxy-3-(hydroxymethyl)-6,6,7b-trimethyl-1H-cyclobuta[e]inden-2-yl 3-chloro-4,6-dihydroxy-2-methylbenzoate]
- effective on MCF-7 cells [1]: effective
- pIC50 [1]: 5.32
- effective on H460 cells [2]: effective
- pIC50 [2]: 5.35
- pIC50 [3]: 4.25
- pIC50 [4]: 4.54
- pIC50 ([5]; Eahy926 endothelial-like cells): 4.67
- Cell viability (% of control) 1 μM [6]: 103.7 % of control
- Cell viability (% of control) 10 μM [6]: 122.7 % of control
- Cell viability (% of control) 50 μM [6]: 6.4 % of control
- Cell viability (% of control) 100 μM [6]: 6.4 % of control
- Cell viability (% of control) 250 μM [6]: 7.0 % of control
- Cell viability (% of control) 500 μM [6]: 8.8 % of control
- pIC50 ([7]; ECs): 8.49
- tumor volume after sacrifice ([8]; CH-205-K study, 4 mg/kg IP every other day, 7 times): 1.364±0.14 cm^3
- Tumor growth inhibition ratio (TGI) ([8]; CH-205-K study, 4 mg/kg IP, 7 times): 21.74%
- tumor volume after sacrifice ([8]; CH-205-K study, 20 mg/kg IP every other day, 7 times): 1.283±0.077 cm^3
- Tumor growth inhibition ratio (TGI) ([8]; CH-205-K study, 20 mg/kg IP, 7 times): 26.38%
- tumor volume after sacrifice ([8]; CH-205-K study, 40 mg/kg IP every other day, 7 times): 1.109±0.119 cm^3
- Tumor growth inhibition ratio (TGI) ([8]; CH-205-K study, 40 mg/kg IP, 7 times): 36.38%
- tumor volume after sacrifice ([8]; CH-205-K study, 80 mg/kg IP every other day, 7 times): 0.867±0.086 cm^3
- Tumor growth inhibition ratio (TGI) ([8]; CH-205-K study, 80 mg/kg IP, 7 times): 50.29%
- effect on body weight ([8]; mouse, in vivo): no different effect on body weight

Structure (SMILES): Cc1cc(O)cc(O)c1C(=O)O[C@@H]1C[C@]2(C)C3CC(C)(C)CC3C=C(CO)[C@]12O (stereo partly drawn) [CH-205-L, (2R,2aS,7bR)-2,2a,4a,5,6,7,7a,7b-octahydro-2a-hydroxy-3-(hydroxymethyl)-6,6,7b-trimethyl-1H-cyclobuta[e]inden-2-yl 2,4-dihydroxy-6-methylbenzoate]
- effective on MCF-7 cells [1]: effective
- pIC50 [1]: 5.08
- effective on H460 cells [2]: effective
- pIC50 [2]: 5.29
- pIC50 [3]: 4.23
- pIC50 [4]: 4.39
- pIC50 ([5]; Eahy926 endothelial-like cells): 4.68
- Cell viability (% of control) 1 μM [6]: 93.2 % of control
- Cell viability (% of control) 10 μM [6]: 118.8 % of control
- Cell viability (% of control) 50 μM [6]: 6.5 % of control
- Cell viability (% of control) 100 μM [6]: 6.4 % of control
- Cell viability (% of control) 250 μM [6]: 6.5 % of control
- Cell viability (% of control) 500 μM [6]: 9.8 % of control
- pIC50 ([7]; ECs): 8.96

Structure (SMILES): Cc1c(Cl)c(O)cc(O)c1C(=O)O[C@@H]1C[C@]2(C)[C@H]3CC(C)(C)C[C@@]3(O)C=C(C=O)[C@]12O [CH-205-N, (2R,2aS,4aR,7aR,7bR)-3-formyl-2,2a,4a,5,6,7,7a,7b-octahydro-2a,4a-dihydroxy-6,6,7b-trimethyl-1H-cyclobuta[e]inden-2-yl 3-chloro-4,6-dihydroxy-2-methylbenzoate]
- pIC50 [1]: < 4.00
- pIC50 [2]: < 4.00
- pIC50 [3]: 4.49
- effective on CEM cells [4]: effective
- pIC50 [4]: 5.26
- pIC50 ([5]; Eahy926 endothelial-like cells): 3.57
- Cell viability (% of control) 1 μM [6]: 96.5 % of control
- Cell viability (% of control) 10 μM [6]: 94.1 % of control
- Cell viability (% of control) 50 μM [6]: 96.5 % of control
- Cell viability (% of control) 100 μM [6]: 85.1 % of control
- Cell viability (% of control) 250 μM [6]: 55.2 % of control
- Cell viability (% of control) 500 μM [6]: 7.6 % of control
- pIC50 ([7]; ECs): 8.46

Structure (SMILES): COc1cc(O)c(C(=O)O[C@@H]2C[C@]3(C)C4C(C=C(C=O)[C@]23O)CC(C)(C)[C@@H]4O)c(C)c1Cl (stereo partly drawn) [CH-205-P, (2R,2aS,7R,7bR)-3-formyl-2,2a,4a,5,6,7,7a,7b-octahydro-2a,7-dihydroxy-6,6,7b-trimethyl-1H-cyclobuta[e]inden-2-yl 3-chloro-6-hydroxy-4-methoxy-2-methylbenzoate]
- effective on MCF-7 cells [1]: effective
- pIC50 [1]: 5.36
- effective on H460 cells [2]: effective
- pIC50 [2]: 5.24
- effective on HT-29 cells [3]: effective
- pIC50 [3]: 4.46
- pIC50 [4]: 4.35
- pIC50 ([5]; Eahy926 endothelial-like cells): 4.68
- Cell viability (% of control) 1 μM [6]: 105.1 % of control
- Cell viability (% of control) 10 μM [6]: 78.5 % of control
- Cell viability (% of control) 50 μM [6]: 6.8 % of control
- Cell viability (% of control) 100 μM [6]: 9.8 % of control
- Cell viability (% of control) 250 μM [6]: 6.8 % of control
- Cell viability (% of control) 500 μM [6]: 9.6 % of control
- pIC50 ([7]; ECs): 8.74

Structure (SMILES): Cc1c(Cl)c(O)cc(O)c1C(=O)O[C@@H]1C[C@]2(C)C3[C@@H](O)C(C)(C)C[C@@]3(O)C=C(C=O)[C@]12O (stereo partly drawn) [CH-205-Q, (2R,2aS,4aR,7R,7bR)-3-formyl-2,2a,4a,5,6,7,7a,7b-octahydro-2a,4a,7-trihydroxy-6,6,7b-trimethyl-1H-cyclobuta[e]inden-2-yl 3-chloro-4,6-dihydroxy-2-methyl benzoate]
- pIC50 [1]: < 4.00
- pIC50 [2]: < 4.00
- pIC50 [3]: < 4.00
- pIC50 [4]: < 4.00
- pIC50 [5]: < 3.30
- Cell viability (% of control) 1 μM [6]: 104.7 % of control
- Cell viability (% of control) 10 μM [6]: 98.9 % of control
- Cell viability (% of control) 50 μM [6]: 105.5 % of control
- Cell viability (% of control) 100 μM [6]: 108.6 % of control
- Cell viability (% of control) 250 μM [6]: 100.2 % of control
- Cell viability (% of control) 500 μM [6]: 74.1 % of control
- pIC50 [7]: 9.00

Structure (SMILES): N.N.[Cl][Pt][Cl] [cisplatin, reference compound]
- Tumor growth inhibition ratio (TGI) ([8]; CH-205-K study, positive control 5 mg/kg (fifth value of the sentence)): 77.78%
- Tumor growth inhibition ratio (TGI) ([8]; CH-205-O study, positive control 5 mg/kg): 82%
